According to ChEMBL document CHEMBL5316379, “Potent and Selective BCL-XL Inhibitors and PROTAC Compounds as Potential Cancer Treatment and Immunotherapy” (ACS Med Chem Lett, 2023):

Legend:
[1] = target: von Hippel-Lindau disease tumor suppressor/Bcl-2-like protein 1 (Homo sapiens, UniProt P40337+Q07817); assay: Protac activity at VHL/BCL-xl in human NCI-H1650 cells assessed as induction of BCL-xl degradation by Nano-Glo HiBiT assay; format: cell-based
EBC-1 = assay: Growth inhibition of human EBC-1 cells assessed as cell viability incubated for 5 days by CellTiter-Glo assay; format: functional; details: EBC-1, 120 h, time 5 day

Chain of von Hippel-Lindau disease tumor suppressor/Bcl-2-like protein 1 (Q07817 whole entry): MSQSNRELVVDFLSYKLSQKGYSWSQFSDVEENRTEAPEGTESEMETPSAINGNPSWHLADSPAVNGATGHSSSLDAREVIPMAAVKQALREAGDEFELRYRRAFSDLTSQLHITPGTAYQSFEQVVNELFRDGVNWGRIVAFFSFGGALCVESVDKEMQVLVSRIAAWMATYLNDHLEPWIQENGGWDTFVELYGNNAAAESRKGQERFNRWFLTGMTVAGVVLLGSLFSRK
Chain of von Hippel-Lindau disease tumor suppressor/Bcl-2-like protein 1 (P40337 whole entry): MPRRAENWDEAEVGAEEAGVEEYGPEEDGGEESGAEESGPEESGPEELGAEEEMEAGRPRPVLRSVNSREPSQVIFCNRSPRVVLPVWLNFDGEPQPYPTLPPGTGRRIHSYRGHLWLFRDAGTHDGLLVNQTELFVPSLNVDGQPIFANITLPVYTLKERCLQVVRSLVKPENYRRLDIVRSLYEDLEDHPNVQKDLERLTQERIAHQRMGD

SMILES	EC50 [1] [nM]	GI50 (EBC-1) [nM]
Cc1ncsc1-c1ccc([C@H](C)NC(=O)[C@@H]2C[C@@H](O)CN2C(=O)[C@@H](NC(=O)CCCCCCN(C)CCOC23C[C@@]4(C)C[C@@](C)(C2)C[C@@](Cn2ncc(-c5ccc(N6CCCc7c6nnc(Nc6nc8ccccc8s6)c7C)nc5C(=O)O)c2C)(C3)C4)C(C)(C)C)cc1	3	9
Cc1ncsc1-c1ccc([C@H](C)NC(=O)[C@@H]2C[C@@H](O)CN2C(=O)[C@@H](NC(=O)CCCCCCCN(C)CCOC23C[C@@]4(C)C[C@@](C)(C2)C[C@@](Cn2ncc(-c5ccc(N6CCCc7c6nnc(Nc6nc8ccccc8s6)c7C)nc5C(=O)O)c2C)(C3)C4)C(C)(C)C)cc1	3	13
Cc1ncsc1-c1ccc([C@H](C)NC(=O)[C@@H]2C[C@@H](O)CN2C(=O)[C@@H](NC(=O)CCCCCCCCCCCCCN(C)CCOC23C[C@@]4(C)C[C@@](C)(C2)C[C@@](Cn2ncc(-c5ccc(N6CCCc7c6nnc(Nc6nc8ccccc8s6)c7C)nc5C(=O)O)c2C)(C3)C4)C(C)(C)C)cc1	–	1

More lines, main results first:

EC50 [1] [nM]	SMILES	GI50 (EBC-1) [nM]
1	Cc1ncsc1-c1ccc([C@H](C)NC(=O)[C@@H]2C[C@@H](O)CN2C(=O)[C@@H](NC(=O)CCCCCCCCCCCCCCN(C)CCOC23C[C@@]4(C)C[C@@](C)(C2)C[C@@](Cn2ncc(-c5ccc(N6CCCc7c6nnc(Nc6nc8ccccc8s6)c7C)nc5C(=O)O)c2C)(C3)C4)C(C)(C)C)cc1	2
2	Cc1ncsc1-c1ccc([C@H](C)NC(=O)[C@@H]2C[C@@H](O)CN2C(=O)[C@@H](NC(=O)CCCCCCCCN(C)CCOC23C[C@@]4(C)C[C@@](C)(C2)C[C@@](Cn2ncc(-c5ccc(N6CCCc7c6nnc(Nc6nc8ccccc8s6)c7C)nc5C(=O)O)c2C)(C3)C4)C(C)(C)C)cc1	23
1	Cc1ncsc1-c1ccc([C@H](C)NC(=O)[C@@H]2C[C@@H](O)CN2C(=O)[C@@H](NC(=O)CCCCCCCCCCCCCCCN(C)CCOC23C[C@@]4(C)C[C@@](C)(C2)C[C@@](Cn2ncc(-c5ccc(N6CCCc7c6nnc(Nc6nc8ccccc8s6)c7C)nc5C(=O)O)c2C)(C3)C4)C(C)(C)C)cc1	5
1	Cc1ncsc1-c1ccc([C@H](C)NC(=O)[C@@H]2C[C@@H](O)CN2C(=O)[C@@H](NC(=O)CCCCCCCCCCCN(C)CCOC23C[C@@]4(C)C[C@@](C)(C2)C[C@@](Cn2ncc(-c5ccc(N6CCCc7c6nnc(Nc6nc8ccccc8s6)c7C)nc5C(=O)O)c2C)(C3)C4)C(C)(C)C)cc1	13
